Results reported in paper PMC6695598, “The Development of Tetrazole Derivatives as Protein Arginine Methyltransferase I (PRMT I) Inhibitors” (International Journal of Molecular Sciences, 2019).
Counter-ions that a name gives are not always drawn.

Assays:
PRMT1 = PRMT1 (Homo sapiens, UniProt Q99873); experiment: radioactive PRMT1 methylation inhibition assay ([3H]-SAM, biotinylated histone H4 peptide); format: biochemical; details: for % Inhibition of PRMT1 (at 10 μM) / inhibition at 10 µM: 10 μM compound, initial screening
Chain of PRMT1 (Q99873 whole entry): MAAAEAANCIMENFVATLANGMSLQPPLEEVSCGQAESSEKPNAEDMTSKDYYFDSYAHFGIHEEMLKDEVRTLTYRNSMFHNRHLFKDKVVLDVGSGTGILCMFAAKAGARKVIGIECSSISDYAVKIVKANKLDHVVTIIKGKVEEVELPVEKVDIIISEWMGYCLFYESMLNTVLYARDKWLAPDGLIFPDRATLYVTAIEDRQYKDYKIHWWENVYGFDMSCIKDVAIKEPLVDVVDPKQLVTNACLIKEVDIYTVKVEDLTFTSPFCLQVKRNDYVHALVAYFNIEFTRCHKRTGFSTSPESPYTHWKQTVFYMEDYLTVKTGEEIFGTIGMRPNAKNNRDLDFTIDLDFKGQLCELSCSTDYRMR
Description: A series of 1,5-substituded tetrazole derivatives were synthesized to investigate the structure-activity relationship (SAR) of PRMT1 inhibitors (Table 1). […] The chemical modification of these compounds is mainly focused on the substituted benzene ring. The initial screening of these compounds was carried out using the radioactive PRMT1 methylation inhibition assay, which measured the amount of methyl groups that transferred from [^3H]-SAM to a biotinylated histone H4 peptide (ac- […](Biotin)). […] In the second step, the Group II compounds were designed and synthesized by extending the ethylenediamine side chain to propylenediamine.
(§1) The enzyme inhibitory activities were measured by the radioisotope assay in ShangHai Chempartner Co. Ltd. according to the standard protocol. The similar procedure was recently performed in the publication The radioactive methylation assay was performed in 1× assay buffer (modified Tris buffer) system containing enzyme (PRMT1/5), peptide and [^3H]-SAM solution and compounds on the assay plate. […] Afterwards, the reaction was stopped with addition of 5 μL cold SAM solution to per well. Then, 25 μL of volume per well was transferred to Flashplate from assay plate and incubated for 1 h minimum at room temperature. Finally, the Flashplate was washed with dH2O and 0.1% Tween-20 three times and then reading plate in Mi crobeta using program ^3H-Flashplate. The data was analyzed in GraphPad Prism 5 to obtain IC50 values.

PRMT5 = PRMT5 (Homo sapiens, UniProt O14744); experiment: radioactive methylation assay, PRMT5 selectivity; format: biochemical
Chain of PRMT5 (O14744 whole entry, species assumed): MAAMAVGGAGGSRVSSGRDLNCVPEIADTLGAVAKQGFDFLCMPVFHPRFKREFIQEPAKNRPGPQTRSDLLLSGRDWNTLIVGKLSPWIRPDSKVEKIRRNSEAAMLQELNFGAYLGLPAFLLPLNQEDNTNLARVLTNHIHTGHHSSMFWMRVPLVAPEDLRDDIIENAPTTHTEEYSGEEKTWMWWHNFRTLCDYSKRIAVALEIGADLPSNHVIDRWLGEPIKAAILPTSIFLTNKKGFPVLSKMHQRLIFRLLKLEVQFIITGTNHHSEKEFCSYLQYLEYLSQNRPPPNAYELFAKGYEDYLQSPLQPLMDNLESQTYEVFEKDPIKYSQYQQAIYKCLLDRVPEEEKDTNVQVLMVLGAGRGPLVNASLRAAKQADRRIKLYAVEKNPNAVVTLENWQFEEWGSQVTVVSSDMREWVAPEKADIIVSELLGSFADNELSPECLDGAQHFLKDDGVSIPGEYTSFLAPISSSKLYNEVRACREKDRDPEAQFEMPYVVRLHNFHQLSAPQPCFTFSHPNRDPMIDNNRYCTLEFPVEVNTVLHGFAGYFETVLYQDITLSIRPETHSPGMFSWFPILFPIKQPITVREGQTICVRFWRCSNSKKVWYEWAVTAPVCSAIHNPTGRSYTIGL
Chain of PRMT5 (Q9BQA1 whole entry partner, species assumed): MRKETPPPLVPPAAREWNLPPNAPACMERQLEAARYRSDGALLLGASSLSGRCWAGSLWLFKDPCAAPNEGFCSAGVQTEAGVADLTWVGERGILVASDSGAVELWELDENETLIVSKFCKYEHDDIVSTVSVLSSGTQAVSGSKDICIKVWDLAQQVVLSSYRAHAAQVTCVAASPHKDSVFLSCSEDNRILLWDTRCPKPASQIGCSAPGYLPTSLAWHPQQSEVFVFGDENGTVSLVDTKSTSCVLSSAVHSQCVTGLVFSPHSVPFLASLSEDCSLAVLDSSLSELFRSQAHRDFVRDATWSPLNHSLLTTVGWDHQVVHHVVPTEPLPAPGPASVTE
Description: as §1

Molecule: N,N’-Dimethyl-N’-(1-(3-methylsulfonylphenyl)-1H-tetrazol-5-yl-methyl)-1,3-propylenediamine hydrochloride [16e]
- % Inhibition of PRMT1 (at 10 μM) (PRMT1): −4%

Molecule: CNCCCN(C)Cc1nnnn1-c1ccc(OC(C)C)cc1 [10a, N,N’-Dimethyl-N’-(1-(4-isopropoxyphenyl)-1H-tetrazol-5-yl-methyl)-1,3-propylenediamine hydrochloride]
- inhibition at 10 µM (PRMT1): 23%

Molecule: CC(C)Oc1ccc(-n2nnnc2CN(C)CCN)cc1.Cl [18a, N-(1-(4-Isopropoxyphenyl)-1H-tetrazol-5-yl-methyl)-N-methyl-ethylenediamine hydrochloride]
- IC50 (PRMT1): 10 µM
- inhibition at 10 µM (PRMT1): 50%
- IC50 (PRMT5): > 100 µM
- melting point: 186.5 to 187.7 °C

Molecule: CNCCN(C)Cc1nnnn1-c1ccc(OC(F)(F)F)cc1.Cl [9f, N,N’-Dimethyl-N’-(1-(4-trifluoromethoxyphenyl)-1H-tetrazol-5-yl-methyl)ethylenediamine hydrochloride]
- IC50 (PRMT5): > 100 µM
- melting point: 194.3 to 195.2 °C

Molecule: CNCCCN(C)Cc1nnnn1-c1cccc(OC(F)(F)F)c1 [10e, N,N’-Dimethyl-N’-(1-(3-trifluoromethoxyphenyl)-1H-tetrazol-5-yl-methyl)-1,3-propylenediamine hydrochloride]
- inhibition at 10 µM (PRMT1): -12%

Molecule: CC(C)Oc1ccc(-n2nnnc2CNCCN)cc1 [18d, N-(1-(4-Isopropoxyphenyl)-1H-tetrazol-5-yl-methyl)-ethylenediaminehydrochloride]
- inhibition at 10 µM (PRMT1): 18%

Molecule: CNCCN(C)Cc1nnnn1-c1ccc(OCC(F)(F)F)cc1.Cl [16c, N,N’-Dimethyl-N’-(1-(4-(2,2,2-trifluoroethoxy)phenyl)-1H-tetrazol-5-yl-methyl)ethylenediamine hydrochloride]
- IC50 (PRMT5): > 100 µM
- melting point: 188.7 to 190 °C

Molecule: CNCCN(C)Cc1nnnn1-c1cccc(OC(F)(F)F)c1.Cl [9e, N,N’-Dimethyl-N’-(1-(3-trifluoromethoxyphenyl)-1H-tetrazol-5-yl-methyl)ethylenediamine hydrochloride]
- inhibition at 10 µM (PRMT1): -17%
- melting point: 185.6 to 186.4 °C

Molecule: N,N’-Dimethyl-N’-(1-(3-methylsulfonylphenyl)-1H-tetrazol-5-yl-methyl)ethylenediamine hydrochloride [16b]
- % Inhibition of PRMT1 (at 10 μM) (PRMT1): 13%

Molecule: CNCCN(C)Cc1nnnn1-c1ccc(OC)cc1.Cl [9c, N,N’-Dimethyl-N’-(1-(4-methoxyphenyl)-1H-tetrazol-5-yl-methyl)ethylenediamine hydrochloride]
- inhibition at 10 µM (PRMT1): 3%
- melting point: 163.2 to 163.6 °C

Molecule: CNCCN(C)Cc1nnnn1-c1cccc(OC(C)C)c1 [9b, N,N’-Dimethyl-N’-(1-(3-isopropoxyphenyl)-1H-tetrazol-5-yl-methyl)ethylenediamine hydrochloride]
- inhibition at 10 µM (PRMT1): 0%

Molecule: CC(C)Oc1ccc(-n2nnnc2CN2CCN(CCN)CC2)cc1 (as salt: hydrochloride) [18e, N-aminoethyl-N’-(1-(4-isopropoxyphenyl)-1H-tetrazol-5-yl-methyl)-piperazinehydrochloride]
- melting point: 183.2 to 183.9 °C

Molecule: CC(C)Oc1ccc(-n2nnnc2CNCCN)cc1 (as salt: hydrochloride) [18d, N-(1-(4-Isopropoxyphenyl)-1H-tetrazol-5-yl-methyl)-ethylenediaminehydrochloride]
- melting point: 183.1 to 183.9 °C

Molecule: CNCCN(C)Cc1nnnn1-c1cccc(OCC(F)(F)F)c1 [16d, N,N’-Dimethyl-N’-(1-(3-(2,2,2-trifluoroethoxy)phenyl)-1H-tetrazol-5-ylmethyl)ethylenediamine hydrochloride]
- inhibition at 10 µM (PRMT1): 3%

Molecule: N,N’-Dimethyl-N’-(1-(4-methylsulfonylphenyl)-1H-tetrazol-5-yl-methyl)ethylenediamine hydrochloride [16a]
- % Inhibition of PRMT1 (at 10 μM) (PRMT1): 23%

Molecule: CC(C)Oc1ccc(-n2nnnc2CN2CCN(CCN)CC2)cc1 [18e, N-aminoethyl-N’-(1-(4-isopropoxyphenyl)-1H-tetrazol-5-yl-methyl)-piperazinehydrochloride]
- IC50 (PRMT5): > 100 µM

Molecule: N-Guanidino-N’-(1-(4-isopropoxyphenyl)-1H-tetrazol-5-yl-methyl)-N’-methyl-ethylenediamine hydrochloride [compound 20]
- % Inhibition of PRMT1 (at 10 μM) (PRMT1): −7%

Molecule: CNCCNCc1nnnn1-c1ccc(OC(C)C)cc1.Cl [18c, N-Methyl-N’-(1-(4-isopropoxyphenyl)-1H-tetrazol-5-yl-methyl)-ethylenediamine hydrochloride]
- inhibition at 10 µM (PRMT1): 10%
- melting point: 179.7 to 180.7 °C

Molecule: CC(C)Oc1ccc(-n2nnnc2CN(C)CCCN)cc1 [18b, N-(1-(4-Isopropoxyphenyl)-1H-tetrazol-5-yl-methyl)-N-methyl-1,3-propylenediamine hydrochloride]
- inhibition at 10 µM (PRMT1): 15%

Molecule: CNCCN(C)Cc1nnnn1-c1cccc(OC)c1.Cl [9d, N,N’-Dimethyl-N’-(1-(3-methoxyphenyl)-1H-tetrazol-5-yl-methyl)ethylenediamine hydrochloride]
- inhibition at 10 µM (PRMT1): 7%
- melting point: 185.6 to 186.4 °C

Molecule: CNCCCN(C)Cc1nnnn1-c1cccc(OC)c1 [10d, N,N’-Dimethyl-N’-(1-(3-methoxyphenyl)-1H-tetrazol-5-yl-methyl)-1,3-propylenediamine hydrochloride]
- inhibition at 10 µM (PRMT1): -14%

Molecule: CNCCCN(C)Cc1nnnn1-c1ccc(OC)cc1.Cl [10c, N,N’-Dimethyl-N’-(1-(4-methoxyphenyl)-1H-tetrazol-5-yl-methyl)-1,3-propylenediamine hydrochloride]
- inhibition at 10 µM (PRMT1): -6%
- melting point: 188.2 to 190.1 °C

Molecule: CNCCCN(C)Cc1nnnn1-c1cccc(OC(C)C)c1 [10b, N,N’-Dimethyl-N’-(1-(3-isopropoxyphenyl)-1H-tetrazol-5-yl-methyl)-1,3-propylenediamine hydrochloride]
- inhibition at 10 µM (PRMT1): 0%
